Experimental data from patent US20100015141A1, “4-PHENOXY-6-ARYL-1H-PYRAZOLO[3,4-D]PYRIMIDINE AND N-ARYL-6-ARYL-1H-PYRAZOLO[3,4-D]PYRIMIDIN-4-AMINE COMPOUNDS, THEIR USE AS MTOR KINASE AND PI3 KINASE INHIBITORS, AND THEIR SYNTHESES” (Wyeth, priority 2008, published 2010).

Key:
Format in all cases: biochemical
PI3K-α = PI3K-α (Homo sapiens, UniProt P42336); experiment: PI3K-alpha fluorescence polarization assay; conditions: 20 μM PIP2, 25 μM ATP
Method: (§1) The reaction buffer was 20 mM HEPES pH7.5, 2 mM MgCl2, 0.05% CHAPS, and 0.01% βME (added fresh). The substrate solution was 40 μM PIP2 (diC8, Echelon, Salt Lake City Utah cat #P-4508, 1 mM in water) and 50 μM ATP in the reaction buffer. Nunc 384-well black polypropylene fluorescent plates were used for PI3K assays. The assay is run by putting 9.5 μl of freshly diluted enzyme in the reaction buffer per well, adding 0.5 μl of diluted drug or DMSO, and mixing. Then 10 μl of the substrate solution is added to each well to start the reaction. A final concentration of 20 μM PIP2 and 25 μM ATP in the reaction was used. Reactions were allowed to proceed for 30-60 minutes at room temperature. After 30-60 minutes, 20 μl of a solution of 10 nM TAMRA detector (Red detector probe-Echelon) and 2.5 uM of GST-murineGRP (1.5 mg/ml in 17% glycerol) was added per well to stop the reaction. The resulting solution was mixed well and allowed to stand for 90-110 minutes before reading plate. Assay Plates were read on Perkin-Elmer Envision plate readers with appropriate filters for Tamra [BODIPY-TMRI(1,3,4,5)P4]. Data obtained were used to calculate enzymatic activity and enzyme inhibition by inhibitor compounds. It is important to keep Red probe solutions dark. This procedure is adapted from Echelon Biosciences Inc procedure for their PI3-Kinase fluorescence polarization activity Assay kit Product number K-1100.

PI3K-γ = PI3K-γ (Homo sapiens, UniProt P48736); experiment: PI3K-gamma fluorescence polarization assay; conditions: 20 μM PIP2, 25 μM ATP
Method: as §1

mTOR = mTOR (Homo sapiens, UniProt P42345); experiment: mTOR enzyme assay (DELFIA, His6-S6K phosphorylation); design: FLAG; conditions: 100 μM ATP, 1.25 μM His6-S6K

Chain of PI3K-γ (P48736 whole entry, species assumed): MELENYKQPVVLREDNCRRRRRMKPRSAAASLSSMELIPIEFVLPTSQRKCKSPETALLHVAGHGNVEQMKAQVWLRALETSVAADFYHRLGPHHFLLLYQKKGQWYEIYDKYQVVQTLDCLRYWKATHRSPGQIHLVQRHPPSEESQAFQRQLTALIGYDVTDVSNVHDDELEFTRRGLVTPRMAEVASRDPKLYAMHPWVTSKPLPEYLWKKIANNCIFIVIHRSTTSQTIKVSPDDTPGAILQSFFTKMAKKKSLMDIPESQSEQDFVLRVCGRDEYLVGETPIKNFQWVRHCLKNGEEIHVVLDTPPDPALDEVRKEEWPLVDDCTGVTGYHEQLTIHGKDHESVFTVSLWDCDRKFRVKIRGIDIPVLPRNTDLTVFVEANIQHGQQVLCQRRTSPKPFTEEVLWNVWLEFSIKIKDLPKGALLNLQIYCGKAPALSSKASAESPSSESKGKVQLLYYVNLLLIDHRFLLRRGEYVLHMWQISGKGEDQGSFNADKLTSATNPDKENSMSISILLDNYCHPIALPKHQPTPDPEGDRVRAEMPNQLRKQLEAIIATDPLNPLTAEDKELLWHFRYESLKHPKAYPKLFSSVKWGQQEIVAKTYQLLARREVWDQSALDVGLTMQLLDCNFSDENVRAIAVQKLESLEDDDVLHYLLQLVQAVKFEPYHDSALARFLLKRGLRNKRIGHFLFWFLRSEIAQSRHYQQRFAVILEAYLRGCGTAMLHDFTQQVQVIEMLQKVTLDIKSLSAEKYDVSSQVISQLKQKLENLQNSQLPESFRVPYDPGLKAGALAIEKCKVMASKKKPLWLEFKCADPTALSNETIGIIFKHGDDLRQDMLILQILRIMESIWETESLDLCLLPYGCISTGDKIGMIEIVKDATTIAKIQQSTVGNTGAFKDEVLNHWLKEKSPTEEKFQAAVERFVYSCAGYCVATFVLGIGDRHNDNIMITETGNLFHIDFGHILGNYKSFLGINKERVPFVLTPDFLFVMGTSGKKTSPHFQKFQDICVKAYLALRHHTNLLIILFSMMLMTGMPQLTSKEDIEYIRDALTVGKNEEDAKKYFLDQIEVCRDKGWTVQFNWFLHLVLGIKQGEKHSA
Chain of PI3K-α (P42336 whole entry, species assumed): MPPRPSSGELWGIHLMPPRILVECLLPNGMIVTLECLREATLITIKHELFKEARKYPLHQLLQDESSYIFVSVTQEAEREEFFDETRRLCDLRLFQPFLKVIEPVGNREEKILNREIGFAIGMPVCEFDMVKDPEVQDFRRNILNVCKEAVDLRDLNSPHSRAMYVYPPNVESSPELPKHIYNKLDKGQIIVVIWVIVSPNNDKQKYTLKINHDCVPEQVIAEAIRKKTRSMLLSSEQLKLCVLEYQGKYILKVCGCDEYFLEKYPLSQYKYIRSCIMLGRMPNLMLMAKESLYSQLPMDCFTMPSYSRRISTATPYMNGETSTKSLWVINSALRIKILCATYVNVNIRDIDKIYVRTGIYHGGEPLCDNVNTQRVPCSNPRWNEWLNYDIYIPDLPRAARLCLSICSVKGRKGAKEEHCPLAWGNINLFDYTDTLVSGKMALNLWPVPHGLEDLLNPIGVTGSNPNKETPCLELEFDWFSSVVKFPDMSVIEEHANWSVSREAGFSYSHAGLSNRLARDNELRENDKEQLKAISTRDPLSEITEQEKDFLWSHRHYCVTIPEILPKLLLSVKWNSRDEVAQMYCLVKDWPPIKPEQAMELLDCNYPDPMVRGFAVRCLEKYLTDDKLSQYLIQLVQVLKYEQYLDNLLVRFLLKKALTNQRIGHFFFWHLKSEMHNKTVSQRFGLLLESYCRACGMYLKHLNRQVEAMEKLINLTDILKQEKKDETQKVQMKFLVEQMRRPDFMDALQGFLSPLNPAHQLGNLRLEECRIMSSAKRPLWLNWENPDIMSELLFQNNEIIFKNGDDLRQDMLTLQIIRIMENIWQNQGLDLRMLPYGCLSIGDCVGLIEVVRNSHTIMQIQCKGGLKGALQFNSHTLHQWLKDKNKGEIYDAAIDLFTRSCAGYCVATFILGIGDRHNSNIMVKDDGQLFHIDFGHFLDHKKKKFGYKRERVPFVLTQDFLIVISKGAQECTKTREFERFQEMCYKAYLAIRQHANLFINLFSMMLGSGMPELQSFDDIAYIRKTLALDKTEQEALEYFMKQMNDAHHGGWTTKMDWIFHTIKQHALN
Chain of PI3K-α (P27986 whole entry partner, species assumed): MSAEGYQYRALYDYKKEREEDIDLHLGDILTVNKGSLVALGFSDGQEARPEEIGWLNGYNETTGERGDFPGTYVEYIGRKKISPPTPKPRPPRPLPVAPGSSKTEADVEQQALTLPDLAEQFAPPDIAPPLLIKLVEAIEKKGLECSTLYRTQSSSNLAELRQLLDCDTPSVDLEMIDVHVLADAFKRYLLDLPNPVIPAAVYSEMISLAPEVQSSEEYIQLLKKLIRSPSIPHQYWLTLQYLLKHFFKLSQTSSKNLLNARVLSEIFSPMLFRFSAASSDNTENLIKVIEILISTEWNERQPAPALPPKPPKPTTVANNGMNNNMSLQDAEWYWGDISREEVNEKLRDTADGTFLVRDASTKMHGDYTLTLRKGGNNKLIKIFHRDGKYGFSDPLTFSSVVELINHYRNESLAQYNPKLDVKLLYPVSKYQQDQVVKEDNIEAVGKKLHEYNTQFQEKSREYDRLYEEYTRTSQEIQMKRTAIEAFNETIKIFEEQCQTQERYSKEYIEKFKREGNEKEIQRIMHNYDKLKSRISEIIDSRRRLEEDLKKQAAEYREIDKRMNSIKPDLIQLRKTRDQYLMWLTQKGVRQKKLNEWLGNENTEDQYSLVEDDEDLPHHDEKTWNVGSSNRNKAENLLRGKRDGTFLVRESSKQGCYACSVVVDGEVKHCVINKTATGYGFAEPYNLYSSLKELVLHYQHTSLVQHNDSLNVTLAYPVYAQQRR

| Compound | IC50 (PI3K-α) | IC50 (PI3K-γ) | IC50 (mTOR) |
| --- | --- | --- | --- |
| CC(C)c1ccc(-c2nc(Oc3ccc4[nH]ccc4c3)c3cnn(C)c3n2)cc1 [Example 58, 4-(1H-indol-5-yloxy)-6-(4-isopropylphenyl)-1-methyl-1H-pyrazolo[3,4-d]pyrimidine] | 3.8 µM | 10.6 µM | > 20 µM |
| CN(C)CCNC(=O)Nc1ccc(Nc2nc(Nc3ccc(C(N)=O)cc3)c3cnn(C)c3n2)cc1 [Example 86, 4-[(6-{[4-({[2-(Dimethylamino)ethyl]carbamoyl}amino)phenyl]amino}-1-methyl-1H-pyrazolo[3,4-d]pyrimidin-4-yl)amino]benzamide] | 0.01 µM | 0.143 µM | 2.2 µM |
| COc1ccc2cc(-c3nc(Oc4ccc5[nH]ccc5c4)c4cnn(C)c4n3)ccc2c1 [Example 57, 4-(1H-indol-5-yloxy)-6-(6-methoxy-2-naphthyl)-1-methyl-1H-pyrazolo[3,4-d]pyrimidine] | 3.22 µM | > 10 µM | 12 µM |
| Cn1ncc2c(Nc3ccc(C(N)=O)cc3)nc(-c3ccccc3)nc21 [Example 11, 4-[(1-methyl-6-phenyl-1H-pyrazolo[3,4-d]pyrimidin-4-yl)amino]benzamide] | 0.167 µM | 1.58 µM | 0.95 µM |
| Cn1cc(-c2nc(Nc3ccc(C(N)=O)cc3)c3cnn(C)c3n2)cn1 [Example 62, 4-{[1-methyl-6-(1-methyl-1H-pyrazol-4-yl)-1H-pyrazolo[3,4-d]pyrimidin-4-yl]amino}benzamide] | 0.603 µM | 1.59 µM | 4.8 µM |
| Cn1ncc2c(Nc3ccc(C(N)=O)cc3)nc(-c3ccc(-c4ccccc4)cc3)nc21 [Example 60, 4-[(6-biphenyl-4-yl-1-methyl-1H-pyrazolo[3,4-d]pyrimidin-4-yl)amino]benzamide] | 8.55 µM | > 10 µM | > 20 µM |
| COc1cccc(-c2nc(Oc3ccc4[nH]ccc4c3)c3cnn(C)c3n2)c1 [Example 38, 4-(1H-indol-5-yloxy)-6-(3-methoxyphenyl)-1-methyl-1H-pyrazolo[3,4-d]pyrimidine] | 0.298 µM | 1.14 µM | 2.5 µM |
| Cn1ncc2c(Oc3ccc4[nH]ccc4c3)nc(-c3cccnc3)nc21 [Example 41, 4-(1H-indol-5-yloxy)-1-methyl-6-pyridin-3-yl-1H-pyrazolo[3,4-d]pyrimidine] | 0.215 µM | 0.428 µM | 7.2 µM |
| Cn1ncc2c(Oc3ccc4[nH]ccc4c3)nc(-c3cccc(Cl)c3)nc21 [Example 66, 6-(3-chlorophenyl)-4-(1H-indol-5-yloxy)-1-methyl-1H-pyrazolo[3,4-d]pyrimidine] | 0.762 µM | 1.16 µM | > 20 µM |
| CN(C)CCN(C)C(=O)c1ccc(NC(=O)Nc2ccc(Nc3nc(Nc4ccc(C(N)=O)cc4)c4cnn(C)c4n3)cc2)cc1 [Example 92, 4-({[4-({4-[(4-Carbamoylphenyl)amino]-1-methyl-1H-pyrazolo[3,4-d]pyrimidin-6-yl}amino)phenyl]carbamoyl}amino)-N-[2-(dimethylamino)ethyl]-N-methylbenzamide] | < 0.0003 µM | 0.006 µM | 0.009 µM |
| CNC(=O)c1ccc(Nc2nc(Nc3ccc(NC(=O)Nc4cccnc4)cc3)nc3c2cnn3C)cc1 [Example 90, N-Methyl-4-{[1-methyl-6-({4-[(pyridin-3-ylcarbamoyl)amino]phenyl}amino)-1H-pyrazolo[3,4-d]pyrimidin-4-yl]amino}benzamide] | 0.0025 µM | 0.075 µM | 0.012 µM |
| Cn1ncc2c(Oc3ccc4[nH]ccc4c3)nc(-c3ccccc3)nc21 [Example 76, 4-(1H-indol-5-yloxy)-1-methyl-6-phenyl-1H-pyrazolo[3,4-d]pyrimidine] | 0.558 µM | 0.57 µM | 0.33 µM |
| CN1CCN(C(=O)c2ccc(NC(=O)Nc3ccc(Nc4nc(Nc5ccc(C(N)=O)cc5)c5cnn(C)c5n4)cc3)cc2)CC1 [Example 81, 4-{[1-Methyl-6-({4-[({4-[(4-methylpiperazin-1-yl)carbonyl]phenyl}carbamoyl)amino]phenyl}amino)-1H-pyrazolo[3,4-d]pyrimidin-4-yl]amino}benzamide] | 0.0004 µM | 0.006 µM | 0.017 µM |
| COc1ccc(Nc2nc(-c3ccccc3)nc3c2cnn3C2CCNCC2)cc1OC [Example 13, N-(3,4-dimethoxyphenyl)-6-phenyl-1-piperidin-4-yl-1H-pyrazolo[3,4-d]pyrimidin-4-amine] | > 10 µM | 7.7 µM |  |
| Cn1ncc2c(Oc3ccc4[nH]ccc4c3)nc(-c3cccc(-c4ccccc4)c3)nc21 [Example 44, 6-biphenyl-3-yl-4-(1H-indol-5-yloxy)-1-methyl-1H-pyrazolo[3,4-d]pyrimidine] | 2.87 µM | > 10 µM |  |
| Cn1ncc2c(Oc3ccc4[nH]ccc4c3)nc(-c3cccc(C(F)(F)F)c3)nc21 [Example 42, 4-(1H-indol-5-yloxy)-1-methyl-6-[3-(trifluoromethyl)phenyl]-1H-pyrazolo[3,4-d]pyrimidine] | 1.21 µM | 0.956 µM |  |
| NC(=O)c1cccc(Nc2nc(-c3ccccc3)nc3c2cnn3C2CCN(Cc3ccccc3)CC2)c1 [Example 3, 3-{[1-(1-benzylpiperidin-4-yl)-6-phenyl-1H-pyrazolo[3,4-d]pyrimidin-4-yl]amino}benzamide] | 7.28 µM | 5.02 µM |  |
| NC(=O)c1cccc(Nc2nc(-c3cccc(O)c3)nc3c2cnn3C2CCN(Cc3ccccc3)CC2)c1 [Example 8, 3-{[1-(1-benzylpiperidin-4-yl)-6-(3-hydroxyphenyl)-1H-pyrazolo[3,4-d]pyrimidin-4-yl]amino}benzamide] | 6.03 µM | 7 µM |  |
| CC(=O)Nc1ccc(Oc2nc(-c3ccc(N(C)C)cc3)nc3c2cnn3C)cc1 [Example 51, N-[4-({6-[4-(dimethylamino)phenyl]-1-methyl-1H-pyrazolo[3,4-d]pyrimidin-4-yl}oxy)phenyl]acetamide] | 4.96 µM | > 10 µM |  |
| COc1cccc(-c2nc(Nc3ccc(C(N)=O)cc3)c3cnn(C4CCN(Cc5ccccc5)CC4)c3n2)c1 [Example 23, 4-{[1-(1-benzylpiperidin-4-yl)-6-(3-methoxyphenyl)-1H-pyrazolo[3,4-d]pyrimidin-4-yl]amino}benzamide] | 2.65 µM | 2.75 µM |  |
| COc1ccc(Nc2nc(-c3ccccc3)nc3c2cnn3C2CCN(Cc3ccccc3)CC2)cc1OC [Example 2, 1-(1-benzylpiperidin-4-yl)-N-(3,4-dimethoxyphenyl)-6-phenyl-1H-pyrazolo[3,4-d]pyrimidin-4-amine] | > 10 µM | 5.1 µM |  |
| NC(=O)c1ccc(Nc2nc(-c3ccccc3O)nc3c2cnn3C2CCN(Cc3ccccc3)CC2)cc1 [Example 26, 4-{[1-(1-benzylpiperidin-4-yl)-6-(2-hydroxyphenyl)-1H-pyrazolo[3,4-d]pyrimidin-4-yl]amino}benzamide] | 2.25 µM | 4 µM |  |
| Oc1cccc(-c2nc(Nc3ccc4[nH]ccc4c3)c3cnn(C4CCNCC4)c3n2)c1 [Example 19, 3-[4-(1H-indol-5-ylamino)-1-piperidin-4-yl-1H-pyrazolo[3,4-d]pyrimidin-6-yl]phenol] | > 10 µM | 5.93 µM |  |
| CC(=O)Nc1cccc(Nc2nc(-c3ccccc3)nc3c2cnn3C2CCNCC2)c1 [Example 15, N-{3-[(6-phenyl-1-piperidin-4-yl-1H-pyrazolo[3,4-d]pyrimidin-4-yl)amino]phenyl}acetamide] | > 10 µM | 8.3 µM |  |
| CC(=O)Nc1ccc(Oc2nc(-c3cccc(C(F)(F)F)c3)nc3c2cnn3C)cc1 [Example 52, N-[4-({1-methyl-6-[3-(trifluoromethyl)phenyl]-1H-pyrazolo[3,4-d]pyrimidin-4-yl}oxy)phenyl]acetamide] | 1.33 µM | 10.5 µM |  |
| CN(C)c1ccc(-c2nc(Oc3ccc4[nH]ccc4c3)c3cnn(C)c3n2)cc1 [Example 40, 4-[4-(1H-indol-5-yloxy)-1-methyl-1H-pyrazolo[3,4-d]pyrimidin-6-yl]-N,N-dimethylaniline] | 3.78 µM | > 10 µM |  |
| NC(=O)c1cccc(Nc2nc(-c3cccc(O)c3)nc3c2cnn3C2CCNCC2)c1 [Example 18, 3-{[6-(3-hydroxyphenyl)-1-piperidin-4-yl-1H-pyrazolo[3,4-d]pyrimidin-4-yl]amino}benzamide] | > 10 µM | 9.72 µM |  |
| COc1ccc(Nc2nc(-c3cccc(O)c3)nc3c2cnn3C2CCNCC2)cc1OC [Example 17, 3-{4[(3,4-dimethoxyphenyl)amino]-1-piperidin-4-yl-1H-pyrazolo[3,4-d]pyrimidin-6-yl}phenol] | > 10 µM | 5.84 µM |  |
| COc1ccc(Oc2nc(-c3ccc(N(C)C)cc3)nc3c2cnn3C)cc1OC [Example 47, 4-[4-(3,4-dimethoxyphenoxy)-1-methyl-1H-pyrazolo[3,4-d]pyrimidin-6-yl]-N,N-dimethylaniline] | 6.04 µM | > 10 µM |  |
